The subject of one assay is D1R neurons (NAc). The assay can be described thus: Whole-cell patch-clamp recordings of D1R-expressing neurons (EPSP, LTP, AMPA/NMDA ratio). The assay is classed as cell-based, mouse. Conditions: NBQX 10 μM after APV 20 μM. The source says: For whole-cell recordings, Drd2-EGFP FVB mice were deeply anesthetized and transcardially perfused with ice-cold cutting artificial cerebrospinal fluid containing (in mM): 87 NaCl, 2.5 KCl, 0.5 CaCl2, 7 MgCl2, 1.25 NaH2PO4, 25 NaHCO3, 25 glucose, and 75 sucrose, bubbled with 95% O2/5% CO2. Parasagittal slices were cut transversely at 300 μm using a vibrating blade microtome (VT1200S, Leica Microsystems). Slices were transferred to normal saline solution containing (in mM): 119 NaCl, 2.5 KCl, 2.5 CaCl2, 1.3 MgCl2, 1.3 NaH2PO4, 26 NaHCO3, and 20 glucose at 32 °C for 30 min and then allowed to recover for 1 h at room temperature before recordings. Individual slices were transferred to a submerged chamber mounted on a fixed-stage upright microscope (Zeiss Axioskop FS) and continuously perfused at 30 °C with normal saline solution containing (in μM): 0 MgCl2, 50 picrotoxin, and 10 glycine. GFP-negative D1 cells were visualized by infrared differential interference contrast microscopy with a water-immersion 63X objective (0.9 NA, Zeiss). Current clamp recordings were performed with unpolished pipettes containing (in mM): 140 K-gluconate, 5 KCl, 2 MgCl2, 10 Hepes, 4 Mg-ATP, 0.3 Na-GTP, 10 Na2-creatine phosphate, 0.2 Na-EGTA, 290 to 300 mOsm, pH 7.3 (final resistance, 3-4MΩ). LTP of EPSPs was induced by HFS in control and RIIβ siP-treated D1 cells (at −70 mV). […]
(Patch clamp records ionic current or voltage across a cell membrane.)

In the next assay the test system is phospho-Thr69 RIIβ. The assay can be described thus: Slice pharmacology, immunoblot of phospho-Thr69 RIIβ. The assay is classed as cell-based, rat. On the procedure: (§1) Slice pharmacology was conducted as previously described ([62]). Briefly, striatum was microdissected from 350 μ coronal rat brain slices, equilibrated for 1 h, 30 °C in Kreb’s buffer with 10 μg/ml adenosine deaminase (Roche). […] Briefly, conditions included low Mg^2+ (0.5 mM) and a 30 min tissue recovery in drug-free buffer prior to harvest. Tissue was snap-frozen on dry ice. Immunoblotting was as previously described ([63]) and analyzed using Image J software (NIH). Data from immunoblots with phosphorylation-specific antibodies were normalized to total protein. Antibodies used included those for PKA regulatory subunits (BD Biosciences Cat# 610626, RRID: AB_397958; BD Biosciences Cat# 610609 RRID:AB_397943; BD Biosciences Cat# 612242 RRID:AB_399565), phospho-S114 RIIβ (BD Biosciences Cat# 612550 RRID:AB_399845), and NMDAR1 (BD Biosciences Cat# 556308 RRID:AB_396353), phospho-S845 GluA1 (PhosphoSolutions Cat# p1160-845 RRID:AB_2492128) and phospho-T34 DARPP-32 (PhosphoSolutions Cat# p1025-34 RRID:AB_2492068), and total GluA1 (Millipore Cat# 05-855R RRID:AB_1587070). Total DARPP-32 antibody was from H. Hemmings (Weill Cornell Medical College).
(Immunoblotting shows a protein as a band on a membrane.)

The test system of another assay is phospho-Ser114 RIIβ. The assay can be described thus: Slice pharmacology, immunoblot of phospho-Ser114 RIIβ. The assay is classed as cell-based, rat. The following applies: striatal slices, NMDA 50 μM, 5 min; *p < 0.05, n = 4. The protocol:
as §1

Assay [1] relates to cortico-ventral striatal synapses (NAc). Description: Cortico-ventral striatal field recordings (fEPSP, LTP, I/O, PPR). The assay is classed as cell-based, rat. The following applies: slices. On the procedure: Adult rats were anaesthetized by isoflurane (Piramal Healthcare), and brains were placed in ice-cold sucrose saline solution (4 °C) containing (in mM): 87 NaCl, 75 Sucrose, 2.5 KCl, 1.25 NaH2PO4, 7 MgCl2, 0.5 CaCl2, 25 NaHCO3, and 10 glucose (pH 7.4; saturated with […]). Parasagittal vibratome slices (350 μ thick) containing prefrontal cortex and NAc core were transferred into saline solution containing 125 NaCl, 2.5 KCl, 1.25 NaH2PO4, 1.3 MgCl2, 2 CaCl2, 25 NaHCO3, and 25 glucose (pH 7.4; saturated with […]) and maintained for 20 min at 30 °C, then transferred to room temperature (22–25 °C) and allowed 1 h recovery. […]
Extracellular recordings: fEPSPs were obtained at 25 °C in the presence of the GABAA antagonist (SR95531, Gabazine, 2 μM) and were evoked by square current pulses (0.2 ms) at 0.033 Hz with a bipolar stimulation electrode (FHC) placed at the border of corpus callosum separated by ∼300 to 500 μ from the recording electrode. […] The paired pulse ratio (PPR) paradigm was applied using different inter-stimulus intervals and PPR changes were measured as PPR = second fEPSP amplitude/first fEPSP amplitude. After recording stable baseline for at least 10 min, LTP was induced by HFS (4 trains, 100 Hz, 1 s duration, separated by 20 s). fEPSP amplitude was monitored for at least 50 min after HFS to evaluate LTP. […]

The test system of the next assay is rats. Description: Forced swim test (FST) after intra-accumbens infusion. In kind it is in vivo, rat. Conditions: ketamine 2 µg in 1 µl, subanesthetic, bilateral intra-accumbal. On the procedure: Rats were anesthetized with isoflurane and placed in a stereotaxic frame (Kopf Instruments). Bilateral cannulas (3 mm center-to-center distance, cut 8 mm below pedestal, Plastics One) were placed in NAc core (anterior-posterior to bregma +1.5 mm, medial/lateral ±1.5 mm, depth −6.8 mm). Peptides were bilaterally infused 1 week later in awake and mobile animals. Injection volume was 1 μl of peptide (100 μM in PBS, 10% DMSO, per cerebral hemisphere). Animals were allowed to recover for 1 h prior to behavioral testing. Accuracy was confirmed by infusion of methylene blue dye or direct visualization of cannula tracts postbehavioral testing.
The Porsolt FST was conducted as described previously ([64]). Briefly, one-trial forced swim was used for acute stress. Nonsurgerized rats underwent an 8 min swim in an 8-gallon transparent water filled cylinder at 24 to 25 °C. Animals recovered in their home cages for 1 h prior to brain dissection. The NAc was then microdissected for immunoblotting. […] They were then placed in a locomotor chamber, and locomotor activity was monitored for 30 min in circular donut-shaped locomotor chambers in the dark with a computer-monitored infrared photobeam system (MED-PC, Med Associates). […] The last 6 min of the test were scored for latency to immobility and time immobile, with immobility defined as the time animals spent completely motionless.

In assay [2] the test system is PKA. Description: PKA inhibition curves for WT versus S114D RIIβ (in vitro). The assay is classed as biochemical. Conditions: means ± S.E.M., n = 3. The protocol:
(§2) Rat recombinant RIIβ was derived as a C-terminal 6XHis fusion by Ni-NTA affinity purification using standard pET vector methods (Novagen). RIIβ was phosphorylated in vitro by Cdk5 or PKA using standard conditions ([55]). Cdk5/p25 was from Millipore, and PKA was from NEB. 32P incorporation was quantitated by PhosphorImager analysis. All kinetic analyses were conducted under empirically defined linear conditions. PKA activity was measured by phosphorylation of recombinant inhibitor-1 ([56]) or DARPP-32 ([14]). For phosphorylation site identification, preparatively phosphorylated RIIβ was subjected to nano-liquid chromatography tandem mass spectrometry as previously described ([57]). Digests were redissolved in 0.1% trifluoracetic acid and loaded onto a ZipTip with C18 resin (Millipore) for purification. Analysis was conducted using nanoelectrospray-QSTAR Pulsar I quadrupole time-of-flight tandem mass spectrometry (MDS Proteomics). Structural model of AKAP/RIIβ dimer interaction was based on published data of AKAP (PDB: 2HWN) ([24]) and RIIβ (PDB: 1CX4) ([58]).

For another assay, the system named is Cdk5. The assay can be described thus: In vitro phosphorylation of RIIβ by Cdk5 (stoichiometry). The assay is classed as biochemical. The following applies: saturating conditions, 32P incorporation. The protocol: as §2
Assay [3] addresses T1, Cdk5-dependent phosphorylation of RIIβ (Homo sapiens, UniProt Q00535).
T1 construct: purchased Millipore
Description: Inhibition of Cdk5-dependent phosphorylation of RIIβ in vitro by siP. The following applies: means ± S.E.M. In kind it is biochemical. The protocol: as §2

For assay [4], the system named is PKA. Description: PKA inhibition by dephospho- vs. phospho-T69 RIIβ. In kind it is biochemical. The following applies: in vitro, n=4. On the procedure: as §2

This is an account of results in PMC9386499, “Integrated regulation of PKA by fast and slow neurotransmission in the nucleus accumbens controls plasticity and stress responses” (The Journal of Biological Chemistry, 2022).

No end group written: not given here.

T1 sequence (Q00535 whole entry): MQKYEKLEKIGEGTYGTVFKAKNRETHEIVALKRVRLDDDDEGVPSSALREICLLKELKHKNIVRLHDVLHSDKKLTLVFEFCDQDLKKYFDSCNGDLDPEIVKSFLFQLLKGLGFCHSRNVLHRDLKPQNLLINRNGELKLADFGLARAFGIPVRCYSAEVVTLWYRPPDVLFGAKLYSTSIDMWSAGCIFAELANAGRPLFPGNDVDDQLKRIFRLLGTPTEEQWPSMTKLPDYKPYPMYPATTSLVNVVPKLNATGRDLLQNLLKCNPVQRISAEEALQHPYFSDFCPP
T1 sequence (Q15078 99-307 partner limits assumed): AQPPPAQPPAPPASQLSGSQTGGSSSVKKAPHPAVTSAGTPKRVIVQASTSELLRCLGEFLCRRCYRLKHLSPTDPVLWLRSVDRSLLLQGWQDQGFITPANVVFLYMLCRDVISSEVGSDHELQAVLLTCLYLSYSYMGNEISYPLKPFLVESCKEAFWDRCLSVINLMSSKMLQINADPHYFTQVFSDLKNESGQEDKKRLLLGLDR

For `NS(=O)(=O)c1cccc2c1c([N+](=O)[O-])cc1nc(O)c(O)nc12` [NBQX], the “effect on EPSP responses, D1R neurons” value in the assay on D1R neurons (NAc) was “ablated EPSP responses”.
In the case of `CN[C@H](CC(=O)O)C(=O)O` [NMDA, N-methyl-D-aspartate], the “phospho-Thr69 RIIβ, NMDA” value with phospho-Thr69 RIIβ (striatal slices, NMDA 50 μM, 5 min, *p < 0.05, n = 4) is on record as “strongly reduced the phosphorylation state of Thr69”. Also, the “phospho-Thr69 RIIβ, LTP-like conditions” value in the assay on phospho-Thr69 RIIβ (ventral striatal slices, low Mg2+, NMDA 25 μM, 5 min and/or dopamine 10 μM, 15 min, 30 min delay after treatment, n = 5 to 6) is given as “decrease in phospho-Thr69 RIIβ”. The “phospho-Ser114 RIIβ, NMDA” value in the assay on phospho-Ser114 RIIβ was “PKA-dependent phosphorylation at Ser114 was increased”.
`Oc1cc2c(c(Cl)c1O)CCNCC2c1ccccc1` (centres unmarked) [SKF81297]: the “LTP (HFS-induced), D1 agonist” value in assay [1] (SKF81297 2 µM, 15 min bath application, #p < 0.05 control vs SKF, n = 7) is “enhanced”.
As for `CNC1(c2ccccc2Cl)CCCCC1=O` (centres unmarked) [ketamine], the “RIIβ siP effects compared with ketamine in FST” value in the assay on rats is reported as “closely mimicked”.
Take `C=C1[C@@H](O)[C@@H]2O[C@]3(CC[C@H](/C=C/[C@@H](C)[C@@H]4CC(C)=C[C@@]5(O[C@H](C[C@@](C)(O)C(=O)O)CC[C@H]5O)O4)O3)CC[C@H]2O[C@@H]1[C@@H](O)C[C@H](C)[C@H]1O[C@@]2(CCCCO2)CC[C@H]1C` [okadaic acid]: in the assay on phospho-Thr69 RIIβ (striatal slices, 200 nM, 1 h (selective PP2A inhibition), *p < 0.05, n = 4-5), the “basal phospho-Thr69 RIIβ, okadaic acid 200 nM” value is reported as “increased”. The “basal phospho-Thr69 RIIβ, okadaic acid 1 μM” value in the assay on phospho-Thr69 RIIβ (striatal slices, 1 μM, 1 h (PP1 inhibition), **p < 0.01, n = 4-5) was “increased”. For the same molecule, in the assay with phospho-Thr69 RIIβ (striatal slices, NMDA 25 µM, 5 min, cyclosporin A 10 µM, 1 h or okadaic acid 1 µM, 1 h, n = 4-6), the “effect on NMDA-induced reduction of phospho-Thr69 RIIβ” value is given as “attenuated the effect of NMDA”.
As to “RIIβ: Rat recombinant RIIβ, C-terminal 6XHis fusion; PKA regulatory subunit”, in the assay with PKA [2], the midpoint of inhibition, the IC50, lay at 1.5 ± 0.3 nM. In addition, the “maximal stoichiometry of phosphorylation by Cdk5” value in the assay on Cdk5 is recorded as 0.6 mol PO4/mol of substrate.
In the case of “RQIKIWFQNRRMKWKK-AAGAGSGAVAFKGANGEA [scrambled siP, penetratin-tagged scramble control peptide]”, the “fEPSP amplitude after HFS (LTP)” value in assay [1] (10 μM for 15 min, washout 25 min, maintained through 50 min following HFS, 25 °C, n = 5) turned out to be 0.31 ± 0.03 mV.
In [3], “RQIKIWFQNRRMKWKKAGAAAGGGTPSKGVNFAEE [RIIβ siP]” had an IC50 of 7.14 ± 2.28 µM.
For the molecule “Thr69 RIIβ: RIIβ phosphorylated at Thr69 by Cdk5”, the “effect of Thr69 phosphorylation on inhibition of PKA catalytic activity by RIIβ” value in the assay with PKA [4] was “did not alter the inhibition of PKA catalytic activity”.

For orientation: IC50 means the midpoint of a concentration-inhibition curve.
